Data: patent US10716798B2, “Compositions and methods for tranquilizing heart muscle” (THE REGENTS OF THE UNIVERSITY OF MICHIGAN, priority 2007, dated 2020)

Columns and labels:
[1] = tested on: atrial natriuretic peptide (ANP) in HL-1 cardiomyocytes; assay: Repression of atrial natriuretic peptide (ANP) in HL-1 cardiomyocytes (Western blot); assay type: cell-based; settings: HL-1 cardiomyocytes treated 48 hours, Western analysis, vs vehicle
Protocol: Induction of VDR and repression of ANP by calcitriol (1,25-(OH)2vitamin-D3) and 1 alpha analogs (1α-Hydroxyitamin-D3 and 1α-hydroxysitocalciferol) is shown in the Western blot of FIG. 7. HL-1 cardiomyocyte cells were grown until confluent then split, and an equal amount (8×10^6 cells) of cells were plated for 24 hours and then treated for 48 hours either with vehicle (control) or with the indicated amount of Vitamin D compound. Cells were then harvested and subjected to Western analysis.

[2] = tested on: Vitamin D receptor (VDR) in HL-1 cardiomyocytes; assay: Induction of VDR in HL-1 cardiomyocytes (Western blot); assay type: cell-based; settings: HL-1 cardiomyocytes treated 48 hours, Western analysis, vs vehicle
Protocol: HL-1 cardiomyocyte cells were grown until confluent then split, and an equal amount (8×10^6 cells) of cells were plated for 24 hours and then treated for 48 hours either with vehicle (control) or with the indicated amount of Vitamin D compound. Cells were then harvested and subjected to Western analysis.

[3] = tested on: adult cardiomyocyte; assay: PKC activation and adult cardiomyocyte contractile function; assay type: cell-based
Protocol: In addition to continued acceleration of relengthening in cardiomyocytes, upon administration of Vitamin D5 the PKC targets phospholamban and cardiac troponin I (cTnI) are specifically phosphorylated by PKC within approximately 60 minutes. Without being bound to theory, it is believed that phosphorylation of phospholamban can increase Ca^2+ sequestration into the sarcoplasmic reticulum while cardiac troponin C I phosphorylation decreases myofilament Ca^2+ sensitivity, two particularly significant events in increasing the relaxation of contractile function in the adult cardiomyocyte.
The pharmaceutical compositions and methods described herein illustrate a mechanism to accelerate relaxation of cardiomyocyte contractile function via direct and rapid cellular action upon administration of 1α25-dihydroxyvitamin D5. These acute effects can be blocked by PKC inhibitors, illustratively bis-I. The phosphorylation of these key cardiac markers phospholamban and troponin C I develop within the same time period as the initial rapid decrease in peak shortening, and acceleration of contraction and relaxation rates.

[4] = tested on: SHHF rats; assay: Cardiac hemodynamic parameters by echocardiography in SHHF rats; assay type: in vivo, rat; settings: for E/A transmitral flow ratio, change vs control / Cardiac index vs control / Stroke volume vs control: 5 days per week for 13 weeks
Protocol: (§1) Five treatment groups were established using SHHF rats. In each cohort (5-6 rats), the diets were substantially identical, rats were each fed a high salt diet (8% NaCl) (Harlan Teklad diet TD92012, Madison Wis. USA) and were accommodated equally. All treatment groups received a single once daily administration subcutaneously (SQ) of a Vitamin D compound at varying concentrations five times per week. The Vitamin D compound was dissolved in 1,2 propandiol containing 0.7% ethanol. Control SHHF rats were dosed with vehicle control alone. The animals were dosed for a period of 13 weeks before they were examined by echocardiography explained in more detail below. The first group comprised a control group in which they received a vehicle alone treatment lacking any Vitamin D. The second group consisted of SHHF rats injected with 18 ng 1,25 dihydroxy Vitamin D3 per dose, one dose per day treated animals. The third group consisted of SHHF rats injected with 33 ng of 1α-hydroxysitocalciferol per dose, one dose per day treated animals. The fourth group consisted of SHHF rats injected with 100 ng of 1α-hydroxysitocalciferol per dose, one dose per day treated animals. The fifth group consisted of SHHF rats injected with 300 ng of 1α-hydroxysitocalciferol per dose, one dose per day treated animals.
After 13 weeks of treatment with the Vitamin D compounds or vehicle control alone, the SHHF rat's cardiac hemodynamic condition was measured, recorded and analyzed for the presence or absence of cardiac tranquilization and reversal of heart failure symptoms.
Non-invasive recording electrocardiograms and echocardiography in conscious rats: Two-dimensional and M-mode echocardiographic images will be recorded using a GE S10 MHz phased-array transducer, connected to a General Electric, Vivid 7 Ultrasound System. The System used for ECG was the AnonyMOUSE ECG Screening System (Mouse Specifics, Boston, Mass. USA). The rats are placed on the instrument's platform and acclimated for 10 min prior to ECG recordings. Animals are anesthetized using an isoflurane anesthetic machine, first by introducing 4% isoflurane and 1 liter of oxygen to an induction chamber. When rats are in lateral recumbency and the breathing is slowed, they are moved to the table where they are placed on a warming pad to maintain body temperature. Their nose is placed in a cone which supplies 1-2% isoflurane and 1 liter of oxygen to maintain a surgical plane of anesthesia. The hair is removed from the upper abdominal and thoracic area with depilatory cream. ECG is monitored via non-invasive resting ECG electrodes (trimmed to fit) placed on the paw pads. The echocardiogram takes approximately 10 minutes.
Transthoracic echocardiography is performed in the supine or left lateral position. Data are analyzed by proprietal software and all rats ECG intervals analyzed by Student's two-tail t-test. […]

[5] = tested on: SHHF rats; assay: Resting heart rate in SHHF rats after Vitamin D treatment; assay type: in vivo, rat; settings: 13 weeks; for Heart rate vs control SHHF rats: SQ
Description: (§2) The effects of Vitamin D compounds including Vitamin D5 and D3 on the contraction of cardiomyocytes in vivo can be studied using normal and heart failure prone rats. To test the effect of Vitamin D compounds on heart failure rats, the present inventors selected the strain of rats called Spontaneously Hypertensive Heart Failure (SHHF) rats obtained from Charles River Laboratories, Wilmington Mass., USA. The SHHF rat was developed by backcrossing the SHROB rat to the SHR/N rat. They are characterized as naturally developing congestive heart failure, hypertension, nephropathy, obesity, insulin resistance, hyperinsulinemia and Type 2 diabetes spontaneously. […] Obesity is expressed as an autosomal recessive (cp/cp) trait, and hypertension is multifactorial (Yen at al., 1974). The CHF trait has been maintained through at least 15 generations. The mode of inheritance of the CHF is probably multifactorial, much like hypertension. These rats develop many of the clinical signs of CHF: generalized and subcutaneous edema, hydrothorax, ascites, dyspnea, cyanosis, enlarged hearts, left atrial thrombosis, and hyperemia of the lungs, liver, and kidneys. These rats are hypertensive, but blood pressure falls to normal levels with the onset of severe CHF. […] These morphologic changes probably reflect early compensatory LV hypertrophy at 6-10 months of age. This is followed by LV failure with elevated right heart pressures and RVFW hypertrophy, finally leading to biventricular CHF. This progression is similar to that of hypertensive heart disease in humans. Other similarities between the SHHF model and human hypertensive-diabetic cardiomyopathy (Factor et al., 1980) and another rat model of hypertension and diabetes (Factor et al., 1983) include increased heart weight and prominent interstitial fibrosis. Pathologic alterations in SHHF Rat hearts corresponding to human dilated cardiomyopathy include four-chamber dilation, intracardiac thrombi, myocyte hypertrophy, and interstitial fibrosis (Unveferth et al., 1986).
Five treatment groups were established using SHHF rats. […]

[6] = Total body weight of SHHF rats; assay type: in vivo, rat; settings: 100 ng/100 g body weight, SQ, 13 weeks
Protocol: as §1
Blood pressure measurement by tail-cuff artery occlusion.

[7] = tested on: SHHF rats; assay: Systolic blood pressure by tail-cuff in SHHF rats; assay type: in vivo, rat; settings: 100 ng/100 g bw, SQ, 13 weeks
Description: as §2, with “This is followed by LV failure with elevated right heart pressures and RVFW hypertrophy, finally leading to biventricular CHF. This progression is similar to that of hypertensive heart disease in humans. Other similarities between the SHHF model and human hypertensive-diabetic cardiomyopathy (Factor et al., 1980) and another rat model of hypertension and diabetes (Factor et al., 1983) include increased heart weight and prominent interstitial fibrosis. Pathologic alterations in SHHF Rat hearts corresponding to human dilated cardiomyopathy include four-chamber dilation, intracardiac thrombi, myocyte hypertrophy, and interstitial fibrosis (Unveferth et al., 1986).” left out

[8] = 300 ng/day, listed as Vitamin D5

Compound | Repression of ANP expression [1] | Induction of VDR [2] | Time to phosphorylation of phospholamban and cardiac troponin I (cTnI) by PKC ([3]; cardiomyocytes, upon administration of Vitamin D5) [min] | Relaxation in adult cardiomyocyte contractile function ([3]; via PKC activation) | E/A transmitral flow ratio, change vs control ([4]; 100 ng/day) | E/A transmitral flow ratio, change vs control ([4]; 100 ng/day, listed as Vitamin D5) | E/A ratio ([4]; 300 ng/day, 13 week treatment) | Cardiac index vs control ([4]; 300 ng/day) | E/A transmitral flow ratio, change vs control ([4]; 300 ng/day) | Stroke volume vs control ([4]; 300 ng/day) | Cardiac index vs control [4, 8] | Stroke volume vs control [4, 8] | Stroke volume, untreated SHHF rats in comparison to treated ([4]; all doses of Vitamin D5 (33, 100, 300 ng/day), 13 weeks) | Heart rate vs control SHHF rats ([5]; 33 ng/100 g body weight) | Heart rate vs control SHHF rats ([5]; 300 ng/day) | Total body weight at 30 weeks age vs control SHHF rats [6] | Systolic blood pressure vs control SHHF rats [7] | Heart rate vs control SHHF rats or Wistar rats ([5]; 18 ng 1,25(OH)2D3, SQ)
C=C1/C(=C\C=C2/CCC[C@]3(C)[C@@H]([C@H](C)CCCC(C)C)CC[C@@H]23)C[C@@H](O)C[C@@H]1O [1α-Hydroxyitamin-D3, reference compound] | repression | considerable induction | – | – | – | – | – | – | – | – | – | – | – | – | – | – | – | –
C=C1/C(=C\C=C2/CCC[C@]3(C)[C@@H]([C@H](C)CC[C@@H](CC)C(C)C)CC[C@@H]23)C[C@@H](O)C[C@@H]1O [1α-hydroxysitocalciferol, 1-α-hydroxy-2,4-ethyl-9,10-seco-5,7,10(19)-cholestatrien-3 β-ol] | remarkable repression | considerable induction | ≤ 60 | accelerated relaxation | statistically significant reduction | significant reduction | about 0.99 | statistically significant reduction | statistically significant reduction | statistically significant reduction | significant reduction | Most pronounced | statistically significant | decrease | increase in heart rate | significant increased body weight | significant decreased BP | –
C=C1/C(=C\C=C2/CCC[C@]3(C)[C@@H]([C@H](C)CCCC(C)(C)O)CC[C@@H]23)C[C@@H](O)C[C@@H]1O [1,25(OH)2D3, 1,25-dihydroxyvitamin D3, reference compound] | repression | – | – | – | – | – | – | – | – | – | – | – | – | – | – | – | – | higher heart rates albeit not statistically significant
